These results are taken from patent EP3563875A1, “RADIUM FOR RADIONUCLIDE THERAPY, IN COMBINATION WITH CALCIUM […] TREATMENT” (priority 2018, dated 2019).

Data set [1] is described as follows: Biodistribution and elimination of 223Ra in mice after i.v. administration. The format is in vivo, female outbred CD1 mice. The method, then: (§1) The study was performed in female outbred CD1 mice imported from Charles River breeds. Animals were housed in groups of five and acclimated over five days. After acclimatization, the animals were divided into four groups. The day before the experiment the feed was taken away and at the beginning of the experiment itself the animals were weighed and placed in cages individually on a nonwoven fabric. After administration of ^223Ra (ca 200 kBq/animal in 0.05 ml of physiological saline) through vena caudalis, excrements were collected after one and four hours; after 24 hours, five mice were sacrificed from each group, another five were sacrificed after 96 hours. Blood, heart, lung, liver, pancreas, spleen, kidney, urinary bladder, wall of the colon, colon content, stomach, stomach content, thyroid gland, brain, femur, ovaries, parts of skin and muscles, and excrements from each mouse were removed. The organs and excrements in the measuring vessels were weighed and measured in a well of NaI (T1) scintillation detector.
Ten mice were medicated with CaCl2 in the concentration of 1.11 g/L for one week prior to administration of ^223Ra. The solution was used to feed per os ad libitum throughout the experiment. Table 3. Biodistribution of 223Ra with CaCl2
15 mice were pre-medicated with vitamin D3, 160 IU/mouse (0.02 mL of triglyceride oil solution of vitamin D3; 0.2 mg/ml) administered per os with part of the feed, three times a week for one week prior to administration of ^223Ra. Five of these mice were eliminated during the experiment because they refused vitamin intake. Table 4. Biodistribution of 223Ra with vitamin D3
Ten mice were medicated with zoledronic acid; 0.1 mL preparation/mouse was taken from the 4 mg/100 mL infusion solution and administered subcutaneously twice a week for one week before administration of ^223Ra. Table 5. Biodistribution of 223Ra with zoledronic acid
Ten mice were used as a control group. Table 6. Biodistribution of 223Ra
Experimental layout was analogous to Example 1 or 2. In the mouse model, the animals were pre-medicated by oral administration of L-arginine for one week. L-arginine was added to the mouse food once a day. The day before administration of radium, Ca2^+ was administered orally in the form of a soluble salt. Subsequently, Ra-223 was administered intravenously as a solution of RaCl2 in physiological NaCl saline.
Experimental layout was analogous to Example 3. In the mouse model, the animals were pre-medicated by subcutaneous injection of calcitonin for one week so that its serum concentration is about 5 nM. Two days before administration of Ra-223, Ca^2+ was administered orally in the form of a soluble salt. Subsequently, Ra-223 was administered intravenously as a solution.

The conditions of data set [2]: cited from earlier work.
The conditions of data set [3]: intravenously or subcutaneously; cited from earlier work.
A short description of data set [4]: Biodistribution and elimination of 223Ra in mice after i.v. administration. The format is in vivo, female outbred CD1 mice. The settings on record: one week pre-medication, oral soluble Ca2+ salt before Ra-223 i.v.; result in words. The method, then:
as §1, with “detector. […]” for “detector.”
Experimental layout was analogous to Example 1 or 2. In the mouse model, the animals were pre-medicated by oral administration of L-arginine for one week. L-arginine was added to the mouse food once a day. The day before administration of radium, Ca2^+ was administered orally in the form of a soluble salt. […]

In the case of `[Cl][223Ra][Cl]` [223Ra, radium-223 dichloride], the “Kidney %ID/g after 24 h” value in data set [1] (223Ra ca 200 kBq/animal i.v., kidney, 24 h) worked out at 1.76 %ID/g. Moreover, the “Kidney %ID/g after 96 h” value in data set [1] (223Ra ca 200 kBq/animal i.v., kidney, 96 h) worked out at 0.32 %ID/g. In data set [1] (223Ra ca 200 kBq/animal i.v., large intestine content, 24 h), the “Large intestine content %ID/g after 24 h” value is given as 2.14 %ID/g. Further, the “Large intestine content %ID/g after 96 h” value in data set [1] (223Ra ca 200 kBq/animal i.v., large intestine content, 96 h) worked out at 0.27 %ID/g. Besides, in data set [1] (223Ra ca 200 kBq/animal i.v., left femur, 24 h), the “Left femur %ID/g after 24 h” value is reported as 13.37 %ID/g. In addition, the “Left femur %ID/g after 96 h” value in data set [1] (223Ra ca 200 kBq/animal i.v., left femur, 96 h) amounted to 10.33 %ID/g. Moreover, the “Liver %ID/g after 24 h” value in data set [1] (223Ra ca 200 kBq/animal i.v., liver, 24 h) was 0.17 %ID/g. Besides, the “Liver %ID/g after 96 h” value in data set [1] (223Ra ca 200 kBq/animal i.v., liver, 96 h) stood at 0.10 %ID/g. The “Spleen %ID/g after 24 h” value in data set [1] (223Ra ca 200 kBq/animal i.v., spleen, 24 h) was determined as 8.59 %ID/g. The “Spleen %ID/g after 96 h” value in data set [1] (223Ra ca 200 kBq/animal i.v., spleen, 96 h) turned out to be 6.77 %ID/g. Besides, the “Thyroid %ID/g after 24 h” value in data set [1] (223Ra ca 200 kBq/animal i.v., thyroid, 24 h) is on record as 0.39 %ID/g. Besides, in data set [1] (223Ra ca 200 kBq/animal i.v., thyroid, 96 h), the “Thyroid %ID/g after 96 h” value came to 0.07 %ID/g. The “In total after 24 h eliminated in excrements” value in data set [1] (223Ra in excrements, 24 h) worked out at 33.54 ± 16.22 % ID. Also, the “In total after 96 h eliminated in excrements” value in data set [1] (223Ra in excrements, 96 h) is 36.43 ± 12.31 % ID. The “In total after 24 h eliminated in urine” value in data set [1] (223Ra in urine, 24 h) turned out to be 16.24 ± 2.29 % ID. The “In total after 96 h eliminated in urine” value in data set [1] (223Ra in urine, 96 h) is 17.73 ± 2.34 % ID. In data set [2] (24 hours after injection), the “activity in the blood” value is given as “less than one percent”. Further, the “administered activity remains in the blood” value in data set [2] (after four hours) is given as “approximately four percent”. In data set [2] (after intravenous injection), the volume of distribution result is “higher than the blood volume”. In addition, the “activity remains in the blood” value in data set [2] (fifteen minutes after the injection) was “about 20%”. For the same compound, the “activity administered excreted from the body” value in data set [2] (whole-body measurement seven days after injection, on average) was 76%. Besides, the “uptake in other organs such as the heart, liver, kidney, urinary bladder, and spleen” value in data set [2] (within four hours after injection) is reported as “No significant uptake”.

For `N=C(N)NCCC[C@H](N)C(=O)O` [L-arginine], in data set [1] (one week pre-medication, oral soluble Ca2+ salt before Ra-223 i.v., result in words), the “Ra uptake in the organism” value was “Ra uptake and resorption increased in the organism”.

For the compound `O=P(O)(O)C(O)(Cn1ccnc1)P(=O)(O)O` [zoledronic acid], the NOAEL in data set [3] is on record as 0.02 mg/kg/day.

Consider calcitonin, for which, in data set [4], the “Ra uptake in the organism” value is listed as “Ra-223 uptake increased in the organism”.

Broadly, the NOAEL is the highest tested level that showed no adverse finding.
